Data as given in patent US6706740B2, “Fungicidal heterocyclic aromatic amides and their compositions, methods of use and preparation” (Dow AgroSciences LLC, priority 1999, dated 2004).

What was measured:
[1] = test system: Magnaporthe grisea (Pyricularia oryzae—PYRIOR); test: microbe, parasite or virus in culture; assay type: cell-based; details: Pyricularia oryzae, read-out: PYRIOR in vitro Growth Inhibition
[2] = test system: Rhizoctonia solani (RHIZSO); test: microbe, parasite or virus in culture; assay type: cell-based; details: Rhizoctonia solani, read-out: RHIZSO in vitro Growth Inhibition
[3] = test system: Mycosphaerella graminicola (Septoria tritici—SEPTTR); test: In vitro fungal growth inhibition, Mycosphaerella graminicola (SEPTTR); assay type: cell-based; details: Zymoseptoria tritici; 25 ppm in the growth medium; read-out: SEPTTR in vitro Growth Inhibition
[4] = test system: Stagonospora nodorum (Leptosphaeria nodorum—LEPTNO); test: In vitro fungal growth inhibition, Stagonospora nodorum (LEPTNO); assay type: cell-based; details: Leptosphaeria; 25 ppm in the growth medium; read-out: LEPTNO in vitro Growth Inhibition
Ustilago maydis (USTIMA) = test: microbe, parasite or virus in culture; assay type: cell-based; details: Mycosarcoma maydis, read-out: USTIMA in vitro Growth Inhibition
[5] = test system: Phytophthora infestans (PHYTIN); test: microbe, parasite or virus in culture; assay type: cell-based; details: Phytophthora infestans, read-out: PHYTIN in vitro Growth Inhibition
[6] = test system: Phytophthora infestans—PHYTIN; test: whole plant or invertebrate; assay type: in vivo; details: Phytophthora, in Solanum lycopersicum, 24 h, read-out: PHYTIN in vivo 1 Day Protectant
[7] = test system: Puccinia recondita—PUCCRT; test: Brown Rust of Wheat, in vivo whole plant, 24 Hour Protectant; details: Puccinia; wheat plants sprayed at 100 ppm, inoculated after 24 hours; control of fungal infection vs untreated plants; read-out: PUCCRT in vivo 1 Day Protectant
Erysiphe graminis—ERYSGT = test: Powdery Mildew of Wheat, in vivo whole plant, 24 Hour Protectant; details: Erysiphe; wheat plants sprayed at 100 ppm, inoculated after 24 hours; control of fungal infection vs untreated plants; read-out: ERYSGT in vivo 1 Day Protectant
Septoria tritici—SEPTTR = test: Leaf Blotch of Wheat, in vivo whole plant, 24 Hour Protectant; details: Zymoseptoria tritici, 24 h, wheat plants sprayed at 100 ppm, inoculated after 24 hours; control of fungal infection vs untreated plants; read-out: SEPTTR in vivo 1 Day Protectant
[8] = test system: Leptosphaeria nodorum—LEPTNO; test: Glume Blotch of Wheat, in vivo whole plant, 24 Hour Protectant; details: wheat plants sprayed at 100 ppm, inoculated after 24 hours, control of fungal infection vs untreated plants; for pest or weed control at 100 ppm: Leptosphaeria, read-out: LEPTNO in vivo 1 Day Protectant

Row | Structure (SMILES) | inhibition at 25 ppm [1] [%] | inhibition at 25 ppm [2] [%] | inhibition at 25 ppm [3] [%] | inhibition at 25 ppm [4] [%] | inhibition at 25 ppm (Ustilago maydis (USTIMA)) [%] | inhibition at 25 ppm [5] [%] | pest or weed control at 100 ppm [6] [%] | pest or weed control at 100 ppm [7] [%] | pest or weed control at 100 ppm (Erysiphe graminis—ERYSGT) [%] | pest or weed control at 100 ppm (Septoria tritici—SEPTTR) [%] | pest or weed control at 100 ppm [8] [%] | melting point [°C] | LEPTNO in vivo 1 Day Protectant [8]
1 | CCOc1ccnc(C(=O)NC2CC(C)(C)CC(C)(C)C2)c1O [Compound 474] | < 80 | < 80 | < 80 | < 80 | < 80 | < 80 | < 25 | 25 to 74 | < 25 | < 25 | 25 to 74 | 107 to 110 | 
2 | CCOc1ccnc(C(=O)NC2COC(=O)[C@H](Cc3ccccc3)[C@@H](OC(=O)C(C)C)[C@H](C)OC2=O)c1O (stereo partly drawn) [Compound 475] | > 80 | < 80 | > 80 | > 80 | < 80 | < 80 | < 25 | 25 to 74 | < 25 | 25 to 74 |  | 168 to 172 | + +
3 | CCOc1ccnc(C(=O)Nc2ccc(Oc3cccc(C(F)(F)F)c3)cc2)c1O [Compound 476] | < 80 | < 80 | < 80 | < 80 | < 80 | < 80 | < 25 | < 25 | < 25 | < 25 | 25 to 74 | 118 to 121 | 
4 | CSc1ccnc(C(=O)NC2COC(=O)[C@H](Cc3ccccc3)[C@@H](OC(=O)C(C)C)[C@H](C)OC2=O)c1O (stereo partly drawn) [Compound 478] | < 80 | < 80 | < 80 | < 80 | < 80 | < 80 | < 25 | 25 to 74 | < 25 | 25 to 74 | 25 to 74 | 184 to 187 | 
5 | CSc1ccnc(C(=O)Nc2ccc(Oc3cccc(C(F)(F)F)c3)cc2)c1O [Compound 479] | < 80 | < 80 | < 80 | < 80 | < 80 | < 80 | < 25 | < 25 | < 25 | 25 to 74 | 25 to 74 | 129 to 132 | 
6 | O=C(NCc1ccccn1)c1nc(Br)ccc1O [Compound 483] | < 80 | < 80 | < 80 | > 80 | < 80 | < 80 | < 25 | < 25 | < 25 | < 25 | < 25 | 124 to 126 | 
7 | O=C(NCC1CCCc2ccccc21)c1nc(Br)ccc1O (stereo not drawn) [Compound 485] | < 80 | < 80 | < 80 | < 80 | < 80 | < 80 | < 25 | < 25 | < 25 | < 25 | < 25 | 140 to 142 | 
8 | COc1ccc(C(C)NC(=O)c2nc(Br)ccc2O)cc1 (stereo not drawn) [Compound 486] | > 80 | < 80 | < 80 | < 80 | < 80 | < 80 | < 25 | < 25 | < 25 | < 25 | < 25 | 111 to 113 | 
9 | CC(NC(=O)c1nc(Br)ccc1O)c1ccc(Cl)cc1 (stereo not drawn) [Compound 487] | > 80 | < 80 | < 80 | < 80 | < 80 | < 80 | < 25 | 25 to 74 | < 25 | < 25 | < 25 | 106 to 107 | 
